The numbers were not newly measured in PMC7414093 (Proceedings of the National Academy of Sciences of the …, 2020), which cites them from elsewhere.

The data set has as its system HA. On the set-up: method as in PMID 28971971. The settings on record: AlphaLISA, HB80.4 as competitor for HA binding; cited from earlier work.

Numbered stars: 1 amine (or outer) side, 2 acyl side, 3 side chain; on linkers, the order of the positions; unused ones are H or OH. Bridge positions count the residues as written; N and C are the ends. Square brackets hold non-standard residues; d marks the D form. Peptide text beside a SMILES is read from it. Phe(3,4-Cl2) = N[C@@H](Cc1ccc(Cl)c(Cl)c1)C(=O)O; X1 = NCCC(=O)N[C@@H](CN[*:2])C(=O)[*:1]; hhPhe = N[C@@H](CCCc1ccccc1)C(=O)O; NMeL = CN[C@@H](CC(C)C)C(=O)O; Orn = NCCC[C@H](N)C(=O)O

Take `CC(=O)N[C@@H](CCCc1ccccc1)C(=O)N[C@H]1CCCNC(=O)[C@@H](NC(=O)CCN)CNC(=O)[C@H](CO)NC(=O)[C@H](CC(C)C)NC(=O)[C@H](Cc2c[nH]c3ccccc23)NC(=O)[C@H](CCC(=O)O)NC(=O)[C@H](Cc2ccc(Cl)c(Cl)c2)NC(=O)[C@H](Cc2ccc(O)cc2)NC(=O)[C@H](CCC(=O)O)NC(=O)[C@H](CC(C)C)N(C)C1=O` [P7] (Ac-[hhPhe][Orn][NMeL]EY[Phe(3,4-Cl2)]EWLS; linker 2-C via X1): the concentration for a half-maximal effect (EC50) is 30 to 70 nM.
